The species named for one experiment is Bos taurus. Nature of the experiment: Displacement of ethidium bromide from calf thymus DNA by fluorescence binding assay.
Experiment [1] deals with Vesicular stomatitis virus. Description: Antiviral activity against Vesicular stomatitis virus at 0.2 to 620 uM after 24 hrs post infection relative to control. The experiment is classed as functional.

Consider 85 molecules from ChEMBL document CHEMBL4052722, “Virtual screening, synthesis and biological evaluation of DNA intercalating antiviral agents” (Bioorg Med Chem Lett, 2017).

In the experiment filed under Bos taurus, `O=C(CN1C(=O)c2cccc3cccc(c23)C1=O)NCCCN1CCOCC1` came in with a log Ka of 5.46.

With `CN1CCN(CCCCn2c3ccccc3c3nc4ccccc4nc32)CC1`, the Activity in experiment [1] is reported as 10%. Further, the log Ka in the experiment filed under Bos taurus was 6.04.

With `O=C(CN1C(=O)c2cccc3cccc(c23)C1=O)NCCN1CCOCC1`, the log Ka in the experiment listed under Bos taurus worked out at 5.68. Molecule `CN(C)CCCCn1c2ccccc2c2nc3ccccc3nc21` returned an Activity in experiment [1] of 30%. This molecule also displayed a log Ka in the experiment filed under Bos taurus of 5.61. Molecule `c1ccc2c(c1)ccc1c2c2nc3ccccc3nc2n1CCN1CCCCC1` showed an Activity in experiment [1] of 20%. In the experiment filed under Bos taurus, this molecule registered a log Ka of 6.61. In turn, `CCN(CC)CCN1C(=O)/C(=N/NC(=O)CCN2CCCCCC2)c2ccccc21` showed a log Ka in the experiment filed under Bos taurus of 6.03. The molecule `CCN(CC)CCNC(=O)CCCCCN1C(=O)c2cccc3cccc(c23)C1=O` returned a log Ka in the experiment listed under Bos taurus of 5.49. Take `CCN(CC)CCNC(=O)CCCN1C(=O)c2cccc3cccc(c23)C1=O`: in experiment [1], the Activity was determined as 20%. This molecule also returned a log Ka in the experiment filed under Bos taurus of 6.13.

For `CCN(CC)CCN1C(=O)c2cccc3cccc(c23)C1=O`, the log Ka in the experiment filed under Bos taurus was found to be 6.98. In the experiment filed under Bos taurus, `O=C1c2cccc3cccc(c23)C(=O)N1CCN1CCCCC1` yielded a log Ka of 5.29. For `CCN(CC)CCn1c2ccccc2c2nc3ccccc3nc21`, the Activity in experiment [1] worked out at 90%. The log Ka in the experiment listed under Bos taurus was determined as 6.07. For `O=C(CCN1CCCCC1)N/N=C1\C(=O)Nc2ccccc21` the same measures were 0% and 5.92. For `c1ccc2nc3c(nc2c1)c1ccccc1n3CCCCN1CCCCC1` the same measures were 11% and 5.93. On the same counts, the results for `OCCNCCCCn1c2ccccc2c2nc3ccccc3nc21` are 32% and 5.96.

Regarding `O=C1c2cccc3cccc(c23)C(=O)N1CCCN1CCOCC1`, the log Ka in the experiment filed under Bos taurus turned out to be 6.93. In experiment [1], `c1ccc2nc3c(nc2c1)c1ccccc1n3CCN1CCCC1` had an Activity of 85%. In the experiment filed under Bos taurus, this molecule came in with a log Ka of 6.05. On the same counts, the results for `CCN(CC)CCOC(=O)CCCn1c2ccccc2c2nc3ccccc3nc21` are 0% and 5.45. In turn, `c1ccc2nc3c(nc2c1)c1ccccc1n3CCN1CCOCC1` displayed an Activity in experiment [1] of 85%. In the experiment listed under Bos taurus, this molecule displayed a log Ka of 5.89. As to `CC1CCN(CCn2c3ccc4ccccc4c3c3nc4ccccc4nc32)CC1`, in experiment [1], the Activity worked out at 30%. Besides, the log Ka in the experiment filed under Bos taurus worked out at 6.83. In experiment [1], `c1ccc2nc3c(nc2c1)c1ccccc1n3CCCN1CCCCC1` returned an Activity of 28%. In the experiment filed under Bos taurus, this molecule came in with a log Ka of 6.04.

As for `CCN(CC)CCCn1c2ccccc2c2nc3ccccc3nc21`, the Activity in experiment [1] is 30%. The molecule further gave a log Ka in the experiment listed under Bos taurus of 6.11.

Consider `O=C(Cn1c2ccccc2c2nc3ccccc3nc21)NCCN1CCNCC1`, for which the log Ka in the experiment listed under Bos taurus was determined as 5.72. `c1ccc2nc3c(nc2c1)c1ccccc1n3CCN1CCCCC1` yielded an Activity in experiment [1] of 90%. In the experiment filed under Bos taurus, this molecule had a log Ka of 6.01. `CCN(CC)CCN1C(=O)/C(=N\NC(=O)CN2CCN(C)CC2)c2ccccc21` showed an Activity in experiment [1] of 0%. The log Ka in the experiment listed under Bos taurus stood at 5.99.

As to `CCCN(CCC)CCCn1c2ccccc2c2nc3ccccc3nc21`, the Activity in experiment [1] came to 41%. This molecule gave a log Ka in the experiment filed under Bos taurus of 6.13. `CN(C)CCCNC(=O)CN1C(=O)c2cccc3cccc(c23)C1=O` came in with a log Ka in the experiment listed under Bos taurus of 5.63.

In turn, `CCN(CC)CCN1C(=O)/C(=N\NC(=O)CN2CCOCC2)c2ccccc21` yielded an Activity in experiment [1] of 8%. This molecule also had a log Ka in the experiment listed under Bos taurus of 6.21. Regarding `c1ccc2c(c1)c1nc3c(nc1n2CCN1CCCCC1)CCCC3`, the Activity in experiment [1] was 65%.

As for `CN(C)CCCCCCn1c2ccccc2c2nc3ccccc3nc21`, the Activity in experiment [1] is reported as 82%. The molecule also had a log Ka in the experiment filed under Bos taurus of 5.81.

The molecule `CCCN(CCC)CCn1c2ccccc2c2nc3ccccc3nc21` registered an Activity in experiment [1] of 90%. The molecule further had a log Ka in the experiment listed under Bos taurus of 6.09. On the same counts, the results for `CN1CCN(CCn2c3ccc4ccccc4c3c3nc4ccccc4nc32)CC1` are 17% and 6.58. On the same counts, the results for `CN1CCN(CC(=O)N/N=C2\C(=O)Nc3ccccc32)CC1` are 80% and 5.43.

`CCN(CC)CCn1c2ccc3ccccc3c2c2nc3ccccc3nc21`: in experiment [1], the Activity amounted to 14%. The molecule also gave a log Ka in the experiment filed under Bos taurus of 6.79.

On to `CCN(CC)CCN1C(=O)/C(=N\NC(=O)CN2CCCCCC2)c2ccccc21`, for which the log Ka in the experiment listed under Bos taurus was 6.32. Take `O=C(CCCN1C(=O)c2cccc3cccc(c23)C1=O)NCCN1CCOCC1`: the Activity in experiment [1] was 5%. The molecule further yielded a log Ka in the experiment listed under Bos taurus of 5.87. `CC1CCN(CCCCn2c3ccccc3c3nc4ccccc4nc32)CC1` yielded an Activity in experiment [1] of 20%. The log Ka in the experiment listed under Bos taurus was determined as 5.8.

`OCCNCCn1c2ccc3ccccc3c2c2nc3ccccc3nc21` had an Activity in experiment [1] of 20%. In addition, the log Ka in the experiment listed under Bos taurus is 6.8. For `c1ccc2nc3c(nc2c1)c1ccccc1n3CCCCN1CCOCC1` the same measures were 35% and 5.94. On the same counts, the results for `CN1CCN(CCCn2c3ccccc3c3nc4ccccc4nc32)CC1` are 39% and 6.37. For `O=C(CCN1C(=O)c2cccc3cccc(c23)C1=O)NCCN1CCOCC1` the same measures were 5% and 5.78. The molecule `CN(C)CCCOC(=O)CCCn1c2ccccc2c2nc3ccccc3nc21` registered an Activity in experiment [1] of 100%. In the experiment listed under Bos taurus, the log Ka came to 5.32. With `O=C(CCCn1c2ccccc2c2nc3ccccc3nc21)OCCCN1CCOCC1`, in experiment [1], the Activity came to 100%. For the same molecule, the log Ka in the experiment listed under Bos taurus was 5.35. `CN(C)CCCN1C(=O)c2cccc3cccc(c23)C1=O` had a log Ka in the experiment filed under Bos taurus of 7.07. In experiment [1], `c1ccc2c(c1)c1nc3c(nc1n2CCN1CCOCC1)CCCC3` showed an Activity of 66%. In the experiment listed under Bos taurus, `CN(C)CCCNC(=O)c1cc2c(ccc3ccccc32)o1` had a log Ka of 5.48. Turning to `CN(C)CCOC(=O)Cn1c2ccccc2c2nc3ccccc3nc21`, in experiment [1], the Activity amounted to 0%. For the same molecule, the log Ka in the experiment filed under Bos taurus was 5.46. Consider `CN(C)CCCCCn1c2ccccc2c2nc3ccccc3nc21`, for which the Activity in experiment [1] is given as 68%. The log Ka in the experiment filed under Bos taurus came to 5.66. In turn, `O=C(CCCCCN1C(=O)c2cccc3cccc(c23)C1=O)NCCCN1CCOCC1` showed an Activity in experiment [1] of 50%. In addition, in the experiment filed under Bos taurus, the log Ka amounted to 6.03. For `CC1CCN(CCCn2c3ccccc3c3nc4ccccc4nc32)CC1` the same measures were 74% and 6.07. On the same counts, the results for `O=C(Cn1c2ccccc2c2nc3ccccc3nc21)OCCN1CCOCC1` are 45% and 5.18. For `CC1CCCCN1CCCn1c2ccccc2c2nc3ccccc3nc21` (stereo not given), in experiment [1], the Activity turned out to be 56%. The log Ka in the experiment listed under Bos taurus amounted to 6.28. Regarding `CCN(CC)CCCNC(=O)CCCn1c2ccccc2c2nc3ccccc3nc21`, the log Ka in the experiment filed under Bos taurus is 4.77. In experiment [1], `CN1CCN(CC(=O)N/N=C2\C(=O)Nc3ccc4ccccc4c32)CC1` registered an Activity of 70%. The molecule further gave a log Ka in the experiment filed under Bos taurus of 5.99. For `CCN(CC)CCCCn1c2ccccc2c2nc3ccccc3nc21` the same measures were 10% and 6.22.

As for `CCN(CC)CCCNC(=O)c1cc2c(ccc3ccccc32)o1`, the log Ka in the experiment listed under Bos taurus came to 6.12. In experiment [1], `CC1CCCCN1CCCCn1c2ccccc2c2nc3ccccc3nc21` (stereo not given) came in with an Activity of 26%. In the experiment listed under Bos taurus, this molecule came in with a log Ka of 5.6. For the molecule `O=C(CCCn1c2ccccc2c2nc3ccccc3nc21)NCCCNCCO`, the log Ka in the experiment listed under Bos taurus was 5.09. Same read-out and setting: the result for `O=C1c2cccc3cccc(c23)C(=O)N1CCNCCO` reads 5.57; that for `CN(C)CCCNC(=O)CCCN1C(=O)c2cccc3cccc(c23)C1=O`, 5.95; that for `CN1CCN(CCCCCn2c3ccccc3c3nc4ccccc4nc32)CC1`, 6.23. The same measure, in the same setting: under `O=C(CCCn1c2ccccc2c2nc3ccccc3nc21)NCCNCCO` stands 5.05. In experiment [1], `CC1CCN(CCn2c3ccccc3c3nc4c(nc32)CCCC4)CC1` displayed an Activity of 95%. Take `CCN(CC)CCCN1C(=O)c2cccc3cccc(c23)C1=O`: the log Ka in the experiment filed under Bos taurus stood at 6.57. Consider `CCCN(CCC)CCn1c2ccccc2c2nc3c(nc21)CCCC3`, for which, in experiment [1], the Activity came to 90%. `CNCCCN1C(=O)c2cccc3cccc(c23)C1=O` yielded a log Ka in the experiment filed under Bos taurus of 5.57. Same read-out and setting: under `CN(C)CCCNC(=O)CCN1C(=O)c2cccc3cccc(c23)C1=O` stands 5.92; under `CCN(CC)CCNC(=O)CN1C(=O)c2cccc3cccc(c23)C1=O`, 5.54; under `O=C(NCCN1CCOCC1)c1cc2c(ccc3ccccc32)o1`, 4.58.

Consider `CCN(CC)CCNC(=O)c1cc2c(ccc3ccccc32)o1`, for which the log Ka in the experiment filed under Bos taurus was determined as 5.77.

Consider `CCN(CC)CCN1C(=O)/C(=N\NC(=O)CCN2CCOCC2)c2ccccc21`, for which the log Ka in the experiment listed under Bos taurus amounted to 6.08.

With `CCN(CC)CC(=O)NN1C(=O)c2cccc3cccc(c23)C1=O`, the log Ka in the experiment filed under Bos taurus is 5.6.

Consider `CN(C)CCn1c2ccccc2c2nc3c(nc21)CCCC3`, for which the Activity in experiment [1] came out at 88%. Turning to `O=C(CN1CCCC1)N/N=C1\C(=O)Nc2ccccc21`, in the experiment listed under Bos taurus, the log Ka was found to be 5.58. The same measure, in the same setting: the result for `c1ccc2nc3c(nc2c1)c1ccccc1n3CCCCCCN1CCCCC1` reads 5.95; that for `O=C(CN1CCOCC1)N/N=C1\C(=O)Nc2ccccc21`, 5.28. As to `CN1CCN(CCn2c3ccccc3c3nc4c(nc32)CCCC4)CC1`, the Activity in experiment [1] was determined as 100%. `CN1CCN(CCCCCCn2c3ccccc3c3nc4ccccc4nc32)CC1`: the log Ka in the experiment listed under Bos taurus turned out to be 6.45. The same measure, in the same setting: the result for `O=C(NCCCN1CCOCC1)c1cc2c(ccc3ccccc32)o1` reads 5.64. With `O=C(CCCCCN1C(=O)c2cccc3cccc(c23)C1=O)NCCN1CCOCC1`, the log Ka in the experiment filed under Bos taurus worked out at 5.53. In the experiment filed under Bos taurus, `O=C(CN1CCOCC1)NN1C(=O)c2cccc3cccc(c23)C1=O` gave a log Ka of 5.34. Same read-out and setting: under `O=C(CN1CCCCC1)NN1C(=O)c2cccc3cccc(c23)C1=O` stands 6.2; under `CCN(CC)CCCNC(=O)CN1C(=O)c2cccc3cccc(c23)C1=O`, 5.31. As for `CCN(CC)CCN1C(=O)/C(=N\NC(=O)CN2CCCCC2)c2ccccc21`, the log Ka in the experiment listed under Bos taurus stood at 5.74. Still for that read-out and setting: the result for `O=C1c2cccc3cccc(c23)C(=O)N1NCCN1CCOCC1` reads 5.38; that for `O=C(CCCn1c2ccccc2c2nc3ccccc3nc21)NCCN1CCNCC1`, 4.97.
